Laboratory results: patent US6992089B2, “Nitro and amino substituted topoisomerase agents” (Rutgers, The University of New Jersey, priority 2002, dated 2006)
Read-outs that look alike come from different tables or passages of the source.

Experiments:
P388/CPT45 = experiment: MTT cytotoxicity assay, P388/CPT45; format: cell-based; details: Mus musculus, P388CPT45, 96 h, read-out: Cytotoxicity IC50 P388/CPT45
Description: (§1) The cytotoxicity was determined using the MTT-microtiter plate tetrazolinium cytotoxicity assay (MTA—See Mosmann, T., J. Immunol. Methods 1983, 65, 55-63; Carmichael, J., et al., Cancer Res. 1987, 47, 936-942; and Denizot, F., et al., J. Immunol. Methods 1986, 89, 271-277). […] The cytotoxicity assay was performed using 96-well microtiter plates. Cells were grown in suspension at 37° C. in 5% CO2 and maintained by regular passage in RPMI medium supplemented with 10% heat-inactivated fetal bovine serum, L-glutamine (2 mM), penicillin (100 U/mL), and streptomycin (0.1 mg/mL). […] For determination of IC50, cells were exposed continuously for 4 days to varying concentrations of drug, and MTT assays were performed at the end of the fourth day. […] All assays were performed at least twice in 6 replicate wells.

RPMI 8402 = experiment: Test B: MTT-microtiter plate tetrazolinium cytotoxicity assay, RPMI 8402; format: cell-based; details: Homo sapiens, RPMI 8402, 96 h, read-out: Cytotoxicity IC50 RPMI 8402
Description: as §1

P388 = experiment: MTT cytotoxicity assay, P388; format: cell-based; details: Mus musculus, P388, 96 h, read-out: Cytotoxicity IC50 P388
Description: as §1

CPT-K5 = experiment: Test B: MTT-microtiter plate tetrazolinium cytotoxicity assay, CPT-K5 (camptothecin-resistant variant); format: cell-based; details: Homo sapiens, CPT-K5, 96 h, read-out: Cytotoxicity IC50 CPT-K5
Description: as §1

human topoisomerase I = molecular target: T1, human topoisomerase I (Homo sapiens, UniProt P11387); experiment: Test A: topoisomerase I-mediated DNA cleavage assay; format: biochemical; details: concentration relative to topotecan (=1) producing the same cleavage on plasmid DNA in presence of human TOP1
T1 construct: unnamed fusion partner (recombinant fusion protein, T7 expression system); made in house; host or cells: E. coli
T1 sequence (P11387 1-765): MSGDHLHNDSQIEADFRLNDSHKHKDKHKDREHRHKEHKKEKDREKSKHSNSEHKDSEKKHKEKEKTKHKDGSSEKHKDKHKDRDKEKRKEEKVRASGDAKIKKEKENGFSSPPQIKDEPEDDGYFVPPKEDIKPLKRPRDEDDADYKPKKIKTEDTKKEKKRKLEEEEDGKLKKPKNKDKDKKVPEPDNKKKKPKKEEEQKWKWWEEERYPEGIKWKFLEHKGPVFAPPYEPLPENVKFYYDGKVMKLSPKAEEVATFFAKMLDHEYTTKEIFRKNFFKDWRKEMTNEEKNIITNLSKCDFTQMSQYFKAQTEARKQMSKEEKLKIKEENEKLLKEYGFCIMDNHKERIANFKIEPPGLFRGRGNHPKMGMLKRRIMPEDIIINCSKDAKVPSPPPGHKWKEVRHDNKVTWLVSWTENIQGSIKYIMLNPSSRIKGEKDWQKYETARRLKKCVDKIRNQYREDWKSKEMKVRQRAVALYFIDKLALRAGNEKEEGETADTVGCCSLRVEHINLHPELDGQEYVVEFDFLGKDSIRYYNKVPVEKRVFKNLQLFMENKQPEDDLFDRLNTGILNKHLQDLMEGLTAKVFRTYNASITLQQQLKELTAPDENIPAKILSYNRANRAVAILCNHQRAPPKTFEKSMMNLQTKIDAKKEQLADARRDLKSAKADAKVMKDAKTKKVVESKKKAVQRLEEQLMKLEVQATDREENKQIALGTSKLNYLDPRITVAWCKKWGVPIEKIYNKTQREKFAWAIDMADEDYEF
Source text: Test A. Topoisomerase-Mediated DNA Cleavage Assays
Human topoisomerase I was expressed in E. Coli and isolated as a recombinant fusion protein using a T7 expression system as described by Gatto, B., et al., Cancer Res. 1996, 56, 2795-2800. Plasmid YepG was purified by the alkali lysis method followed by phenol deproteination and CsCl/ethidium isopycnic centrifugation method as described by Maniatis, T., et al., J. Molecular Cloning, a Laboratory Manual; Cold Spring Harbor Laboratory: Cold Spring Harbor, N.Y. 1982; pp 149-185. The end-labeling of the plasmid was accomplished by digestion with a restriction enzyme followed by end-filling with Klenow polymerase as previously described by Tewey, K. M., et al., Science 1984, 226, 466-468. The cleavage assays were performed as previously reported (see Gatto, B., et al., Cancer Res. 1996, 56, 2795-2800; and Wang, H., et al., Biochemistry 2001, 40; 3316-3323). The drug and the DNA in presence of topoisomerase I was incubated for 30 minutes at 37° C. The reactions were terminated by the addition of 5 μl of 5% SDS and 1 mg/ml […] with an additional 1 hour of incubation at 37° C. Samples were then alkali denatured by the addition of NaOH, EDTA, sucrose, and bromophenol blue to final concentrations of 75 mM, 2.5%, and 0.05 mg/ml, respectively, prior to loading onto a neutral agarose gel. After development of the gels, typically 24-hour exposure was used to obtain autoradiograms outlining the extent of DNA fragmentation.

SMILES | melting point | TOP1-mediated DNA Cleavage (REC, relative effective concentration) (human topoisomerase I) | IC50 (P388/CPT45) [nM] | IC50 (RPMI 8402; 4 days of continuous drug exposure, MTT) [nM] | IC50 (P388; 4 days of continuous drug exposure) [nM] | IC50 (RPMI 8402) [nM] | IC50 (CPT-K5) [nM] | IC50 (P388) [nM]
CC[C@@]1(O)C(=O)OCc2c1cc1n(c2=O)Cc2cc3ccccc3nc2-1 [CPT, Camptothecin, reference compound] |  |  | > 10000 | 5 | 9 |  |  | 
COc1cc2c(=O)n(CCN(C)C)c3c4cccc([N+](=O)[O-])c4ncc3c2cc1OC [Compound 3a, 8,9-Dimethoxy-1-nitro-5-[2-(N,N-dimethylamino)ethyl]-5H-dibenzo[c,h][1,6]naphthyridin-6-one] | 257 to 258 °C | 9 | 2100 |  |  | 220 | 3000 | 190
COc1cc2c(=O)n(CCN(C)C)c3c4ccc([N+](=O)[O-])cc4ncc3c2cc1OC [Compound 3b, 8,9-Dimethoxy-2-nitro-5-[2-(N,N-dimethylamino)ethyl]-5H-dibenzo[c,h][1,6]naphthyridin-6-one] | 214 to 217 °C | 6 | 340 |  |  | 75 | 3350 | 30
COc1cc2c(=O)n(CCN(C)C)c3c4cc([N+](=O)[O-])ccc4ncc3c2cc1OC [Compound 3c, 8,9-Dimethoxy-3-nitro-5-[2-(N,N-dimethylamino)ethyl]-5H-dibenzo[c,h][1,6]naphthyridin-6-one] | 232 to 234 °C | 2 | 200 |  |  | 18 | 800 | 40
COc1cc2c(=O)n(CCN(C)C)c3c(cnc4cccc([N+](=O)[O-])c43)c2cc1OC [Compound 3d, 8,9-Dimethoxy-4-nitro-5-[2-(N,N-dimethylamino)ethyl]-5H-dibenzo[c,h][1,6]-naphthyridin-6-one] | 194 to 195 °C | >300 | 7000 |  |  | 5500 | 11500 | 6000
COc1cc2c(=O)n(CCN(C)C)c3c4ccccc4ncc3c2cc1OC [Compound 5, 8,9-Dimethoxy-5-[2-(N,N-dimethylamino)ethyl]-5H-dibenzo[c,h]1,6-naphthyridin-6-one, reference compound] |  | 10 | 300 |  |  | 100 | 1650 | 70
COc1cc2c(=O)n(CCN(C)C)c3c4ccccc4nnc3c2cc1OC [Compound 12b, 11-(2-Dimethylaminoethyl)-2,3-dimethoxy-11H-5,6,11-triazachrysen-12-one, reference compound] |  |  |  |  |  | 18 | 1500 | 
CC[C@@]1(O)C(=O)OCc2c1cc1n(c2=O)Cc2cc3c(CN(C)C)c(O)ccc3nc2-1 [Topotecan, reference compound] |  | 1 | > 10000 |  |  |  | > 50000 | 35
COc1cc([C@@H]2c3cc4c(cc3[C@@H](O[C@@H]3O[C@@H]5CO[C@@H](c6cccs6)O[C@H]5[C@H](O)[C@H]3O)[C@H]3COC(=O)[C@H]23)OCO4)cc(OC)c1O [VM-26, teniposide, reference compound] |  |  |  |  |  |  | 280 | 

More lines, main results first:

melting point | TOP1-mediated DNA Cleavage (REC, relative effective concentration) (human topoisomerase I) | SMILES | IC50 (P388/CPT45) [nM] | IC50 (RPMI 8402; 4 days of continuous drug exposure, MTT) [nM] | IC50 (P388; 4 days of continuous drug exposure) [nM] | IC50 (RPMI 8402) [nM] | IC50 (CPT-K5) [nM] | IC50 (P388) [nM]
226 to 229 °C | 100 | COc1cc2c(=O)n(CCN(C)C)c3c4cccc(N)c4ncc3c2cc1OC [Compound 4a, 1-Amino-8,9-dimethoxy-5-[2-(N,N-dimethylamino)ethyl]-5H-dibenzo[c,h][1,6]naphthyridin-6-one] | 210 |  |  | 650 | 2000 | 350
208 to 210 °C | 12 | COc1cc2c(=O)n(CCN(C)C)c3c4ccc(N)cc4ncc3c2cc1OC [Compound 4b, 2-Amino-8,9-dimethoxy-5-[2-(N,N-dimethylamino)ethyl]-5H-dibenzo[c,h][1,6]naphthyridin-6-one] | 230 |  |  | 100 | 2100 | 60
213 to 215 °C | 6 | COc1cc2c(=O)n(CCN(C)C)c3c4cc(N)ccc4ncc3c2cc1OC [Compound 4c, 3-Amino-8,9-dimethoxy-5-[2-(N,N-dimethylamino)ethyl]-5H-dibenzo[c,h][1,6]naphthyridin-6-one] | 330 |  |  | 40 | 1350 | 20
239 to 241 °C | >300 | COc1cc2c(=O)n(CCN(C)C)c3c(cnc4cccc(N)c43)c2cc1OC [Compound 4d, 4-Amino-8,9-dimethoxy-5-[2-(N,N-dimethylamino)ethyl]-5H-dibenzo[c,h][1,6]-naphthyridin-6-one] | 3500 |  |  | 4000 | 8000 | 3000
262 to 264 °C (dec.) |  | COc1cc2c(=O)n(CCN(C)C)c3c4cc([N+](=O)[O-])ccc4nnc3c2cc1OC [Compound 12a, 11-(2-Dimethylaminoethyl)-2,3-dimethoxy-9-nitro-11H-5,6,11-triazachrysen-12-one] |  |  |  | 3 | 3300 | 
